Some test systems named below: XF 498 CNS; DMS 114 small cell lung; DLD-1 colon; LXFL 529 NSCLC; SNB-78 CNS; HOP-18 NSCLC; PC-3 prostate; BT-549 breast; NCI/ADR-RES ovarian; T-47D breast.
Assay in all cases: NCI-60 cell line screen, 48 h

For 21 molecules, TGI and GI50 results are on record in PubChem BioAssay (NCI).

Values joined by “and” are separate entries in the source; they are usually repeats but may differ in a detail not shown here. Equal entries are not always repeated.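 All cell lines were grown in 96-well plates and treated with compound for 48 hours. The concentration for 50% growth inhibition is given as GI50. At the TGI there is no net growth.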 Where only a bound is given, the exact number is not on record here.

In the case of `CC(=O)N/C(=C\c1ccc(/C=C(\NC(C)=O)c2nc3ccc(Cl)cc3[nH]2)cc1)c1nc2ccccc2[nH]1`, the TGI in the test on XF 498 CNS, in the test with DMS 114 small cell lung, with DLD-1 colon, in the test with LXFL 529 NSCLC and in the test with SNB-78 CNS was > 100 µM each time.
As for `COc1cc(C2c3cc4c(cc3[C@@H](Nc3ccc(C(=O)O)cc3)C3COC(=O)[C@H]23)OCO4)cc(OC)c1O` (stereo partly drawn), the GI50 is 13.9 µM and 5.44 µM in the test with DMS 114 small cell lung; 17.2 µM and 6.86 µM in the test on DLD-1 colon; 16.8 µM and 5.25 µM in the test with HOP-18 NSCLC. For the same molecule, the TGI in the test on DMS 114 small cell lung was 47.8 µM and > 17.5 µM; in the test on DLD-1 colon, 54.9 µM and > 17.5 µM; with LXFL 529 NSCLC, 39.8 µM and > 17.5 µM; in the test with SNB-78 CNS, 92.7 µM and 17.4 µM; in the test with HOP-18 NSCLC it was > 100 µM.
With `CCN(CC)CCCCC1CCN(CC(=O)N2CC(C)C(=O)Nc3ccccc32)CC1` (stereo not drawn), the TGI with DMS 114 small cell lung, in the test on DLD-1 colon, in the test with LXFL 529 NSCLC and in the test with HOP-18 NSCLC was > 100 µM each time.
Take `Cc1cc2nc3c(C(OC4OC(CO)C(O)C(O)C4O)C(O)CO)nn(-c4ccccc4)c3nc2cc1C` (stereo not drawn): the TGI in the test with XF 498 CNS, with DMS 114 small cell lung, with DLD-1 colon and in the test with SNB-78 CNS was > 100 µM throughout.
Take `c1ccc2c(c1)[I+]c1ccccc1-2`: the GI50 in the test with PC-3 prostate, in the test with BT-549 breast, in the test on NCI/ADR-RES ovarian and with T-47D breast was > 50 µM each time. For the same molecule, the TGI in the test on PC-3 prostate, in the test with BT-549 breast, with NCI/ADR-RES ovarian and in the test on T-47D breast was > 50 µM in each case.
As for `COC(=O)c1c(-c2ccccc2)cc2c3cc(-c4ccccc4)c(C(=O)OC)n3c3ccccc3n12`, the TGI with XF 498 CNS, in the test on DMS 114 small cell lung, in the test with DLD-1 colon, in the test with LXFL 529 NSCLC, in the test with SNB-78 CNS and in the test on HOP-18 NSCLC was > 100 µM throughout.
On to `CC(C)=CC(C(O)c1ccccc1)S(=O)(=O)c1nccn1C` (stereo not drawn), for which the TGI in the test with XF 498 CNS, in the test on DMS 114 small cell lung, in the test on DLD-1 colon, with LXFL 529 NSCLC and in the test with HOP-18 NSCLC was > 100 µM throughout.
For the molecule `NC(=O)c1c[se]c(C2OC(CO)C(O)C2O)n1` (stereo not drawn), the TGI in the test with PC-3 prostate, in the test with XF 498 CNS, with BT-549 breast, in the test on DMS 114 small cell lung, in the test on NCI/ADR-RES ovarian and with T-47D breast was > 100 µM each time. Further, the TGI with DLD-1 colon, in the test on LXFL 529 NSCLC and in the test on HOP-18 NSCLC was > 100 µM in each case.
Take `COc1cc2c(cc1OCc1ccccc1)N=C[C@@H]1C/C(=C/C(=O)NCCCN3C(=O)c4cccc5cccc(c45)C3=O)CN1C2=O`: the GI50 in the test with PC-3 prostate was 0.351 µM; with BT-549 breast it was 0.273 µM; with NCI/ADR-RES ovarian it was 12.8 µM; with T-47D breast, 0.137 µM. Further, the TGI in the test with PC-3 prostate was 9.35 µM; in the test with BT-549 breast, 1.08 µM; with NCI/ADR-RES ovarian, > 100 µM; with T-47D breast, 3.06 µM.
In the case of `C=CCCCCCCCCCCCC1CCC(CC)N1` (stereo not drawn), the TGI stood at 14.7 µM in the test with DMS 114 small cell lung; 15.5 µM in the test with DLD-1 colon; 26 µM in the test with LXFL 529 NSCLC; 37.8 µM in the test with SNB-78 CNS; 25.2 µM in the test on HOP-18 NSCLC.
Regarding `O=[N+]([O-])c1c(/C=N/Nc2ccccc2)oc(-c2ccc3c(c2)OCO3)c1-c1ccc2c(c1)OCO2`, the TGI with XF 498 CNS, in the test with DMS 114 small cell lung, in the test on DLD-1 colon and in the test with LXFL 529 NSCLC was > 100 µM each time.
As for `CCCCCCNC(=O)C1=C(C)NC(C)=C(C(=O)NCCCCCC)C1`, the TGI in the test with PC-3 prostate, in the test with BT-549 breast, in the test with NCI/ADR-RES ovarian and in the test on T-47D breast was > 100 µM in each case.
`N#CC(C#N)=C(N)/C(C#N)=C\c1ccnc2ccccc12`: the TGI with XF 498 CNS is 69.7 µM; in the test with DMS 114 small cell lung, 38.8 µM; with DLD-1 colon, 27.5 µM; in the test with LXFL 529 NSCLC, 54.3 µM; with SNB-78 CNS, > 100 µM; in the test with HOP-18 NSCLC, > 100 µM.
As to `Cc1cc2c(CC(=O)O)[nH]nc2c(C(=O)O)c1C`, the TGI in the test on XF 498 CNS, in the test with DLD-1 colon, in the test with LXFL 529 NSCLC, with SNB-78 CNS and with HOP-18 NSCLC was > 100 µM each time.
In the case of `Cc1nc2ccc(C(F)(F)F)cc2nc1Nc1ccc(Cl)c(Cl)c1`, the TGI with XF 498 CNS stood at 22.2 µM; in the test with LXFL 529 NSCLC, 20.6 µM; in the test with SNB-78 CNS it was 34.4 µM; with HOP-18 NSCLC it was 29.5 µM.
As to `O=C(O)C1CCc2ccc3ccccc3c2C1c1cccc2ccccc12` (stereo not drawn), the TGI is 41.2 µM with PC-3 prostate, 38.8 µM in the test with BT-549 breast, 57.8 µM in the test on NCI/ADR-RES ovarian and > 100 µM in the test with T-47D breast.
With `C=CCc1cc2cccc(OC)c2oc1=O`, the TGI was 53.5 µM in the test on XF 498 CNS; > 100 µM in the test with DMS 114 small cell lung; > 100 µM with DLD-1 colon; > 100 µM in the test on LXFL 529 NSCLC; > 100 µM with SNB-78 CNS; > 100 µM with HOP-18 NSCLC.
For the molecule `CC(=O)O/N=C/c1ncccc1CO`, the TGI with XF 498 CNS, in the test on DMS 114 small cell lung, in the test on DLD-1 colon, with LXFL 529 NSCLC and in the test with HOP-18 NSCLC was > 100 µM throughout.
As to `O=c1cc(-c2ccccc2)[nH]c2cccc(S)c12`, the TGI was > 100 µM with PC-3 prostate, > 100 µM with BT-549 breast, 0.236 µM with NCI/ADR-RES ovarian and > 100 µM in the test on T-47D breast.
For the molecule `CCOc1ccccc1NC(=O)/C=C1\NC(=O)CS1`, the TGI with XF 498 CNS, with DMS 114 small cell lung, in the test on DLD-1 colon, in the test on LXFL 529 NSCLC, in the test on SNB-78 CNS and with HOP-18 NSCLC was > 100 µM each time.
Take `CCCCNc1nc(NC(C)(C)C)nc(NC(C)(C)C)n1`: the GI50 in the test on PC-3 prostate is 4.26 µM; in the test with BT-549 breast, 19.1 µM; in the test with NCI/ADR-RES ovarian, 3.31 µM; in the test with T-47D breast, 15.2 µM. The TGI in the test with PC-3 prostate, with BT-549 breast, in the test with NCI/ADR-RES ovarian and in the test on T-47D breast was > 100 µM throughout.
